T1: LXR-β (Homo sapiens, UniProt P55055)
T1 construct: purchased Life Technologies PV4658
T1 sequence (P55055 222-460 limits assumed): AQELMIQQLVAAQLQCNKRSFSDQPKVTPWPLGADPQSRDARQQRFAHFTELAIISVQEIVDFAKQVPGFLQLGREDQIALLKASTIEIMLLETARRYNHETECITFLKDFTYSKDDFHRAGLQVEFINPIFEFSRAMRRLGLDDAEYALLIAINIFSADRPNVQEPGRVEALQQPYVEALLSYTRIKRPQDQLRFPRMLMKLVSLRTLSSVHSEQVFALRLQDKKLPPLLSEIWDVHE

T2: LXR-α (Homo sapiens, UniProt Q13133)
T2 construct: purchased Life Technologies PV4655
T2 sequence (Q13133 209-447 limits assumed): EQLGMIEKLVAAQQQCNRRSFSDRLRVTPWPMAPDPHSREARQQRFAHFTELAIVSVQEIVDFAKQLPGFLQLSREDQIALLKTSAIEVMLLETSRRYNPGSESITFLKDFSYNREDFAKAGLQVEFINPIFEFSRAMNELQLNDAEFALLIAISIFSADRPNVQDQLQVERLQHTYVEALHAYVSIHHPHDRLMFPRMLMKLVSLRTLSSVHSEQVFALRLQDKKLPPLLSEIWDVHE


Tests used:
[1] = target: T1, LXR-β; assay: LanthaScreen TR-FRET LXR beta Coactivator binding assay; conditions: EC50 (AC50) from fitted curve, read-out: binding affinity for LXR-β
[2] = target: T2, LXR-α; assay: LanthaScreen TR-FRET LXR alpha Coactivator binding assay; conditions: EC50 (AC50) from fitted curve, read-out: binding affinity for LXR-α
[3] = tested on: LXR-α transcriptional response element; assay: In vitro LXR transactivation (luciferase reporter) assay in HepG2 cells; format: cell-based; conditions: 24 hours, presence or absence of 10% human AB serum
Procedure: (§1) Next, the in vitro activity of the anti-CD11a IgGX-CatB-LXR agonist was evaluated using an LXR-driven luciferase stably incorporated into THP-1 and HepG2 cells. This vector encodes the firefly luciferase reporter gene under the control of a CMV promoter and tandem repeats of the LXR-α transcriptional response element. […] Cells were then treated with ONE-Glo and luminescence was read on an Envision plate reader.
(§2) THP-1 cells and HepG2 cells (ATCC) were seeded at 0.6×10^6 cells/well in Opti-MEM media in a 6-well plate and allowed to incubate overnight at 37° C. Afterwards, 50 μL of Cignal lenti LXR-α luciferase reporter (cat no: CLS-7041L, Qiagen) was added to the wells with gentle mixing. After 48 h, the media was changed to completed growth media that was supplemented with 1 μg/mL puromycin. After 24 h, positively transfected cells were cultured for one week in puromycin-containing media.

[4] = tested on: LXR-α transcriptional response element; assay: In vitro LXR transactivation (luciferase reporter) assay in THP-1 cells; format: cell-based; conditions: Homo sapiens, 24 hours, read-out: EC50 (LXR agonist activity)
Procedure: as §1, §2

[5] = target: T3, CD11a (alpha-chain component of lymphocyte function-associated antigen 1, LFA-1) on human THP-1 … (human, UniProt P20701 26-1170); assay: flow cytometry on THP-1 cells in the presence of Fc block
T3 construct: whole, on cells; Endogenous on THP-1 cells, where it stands with its partner chain in LFA-1; also called LFA-1 alpha chain
T3 sequence (P20701 26-1170): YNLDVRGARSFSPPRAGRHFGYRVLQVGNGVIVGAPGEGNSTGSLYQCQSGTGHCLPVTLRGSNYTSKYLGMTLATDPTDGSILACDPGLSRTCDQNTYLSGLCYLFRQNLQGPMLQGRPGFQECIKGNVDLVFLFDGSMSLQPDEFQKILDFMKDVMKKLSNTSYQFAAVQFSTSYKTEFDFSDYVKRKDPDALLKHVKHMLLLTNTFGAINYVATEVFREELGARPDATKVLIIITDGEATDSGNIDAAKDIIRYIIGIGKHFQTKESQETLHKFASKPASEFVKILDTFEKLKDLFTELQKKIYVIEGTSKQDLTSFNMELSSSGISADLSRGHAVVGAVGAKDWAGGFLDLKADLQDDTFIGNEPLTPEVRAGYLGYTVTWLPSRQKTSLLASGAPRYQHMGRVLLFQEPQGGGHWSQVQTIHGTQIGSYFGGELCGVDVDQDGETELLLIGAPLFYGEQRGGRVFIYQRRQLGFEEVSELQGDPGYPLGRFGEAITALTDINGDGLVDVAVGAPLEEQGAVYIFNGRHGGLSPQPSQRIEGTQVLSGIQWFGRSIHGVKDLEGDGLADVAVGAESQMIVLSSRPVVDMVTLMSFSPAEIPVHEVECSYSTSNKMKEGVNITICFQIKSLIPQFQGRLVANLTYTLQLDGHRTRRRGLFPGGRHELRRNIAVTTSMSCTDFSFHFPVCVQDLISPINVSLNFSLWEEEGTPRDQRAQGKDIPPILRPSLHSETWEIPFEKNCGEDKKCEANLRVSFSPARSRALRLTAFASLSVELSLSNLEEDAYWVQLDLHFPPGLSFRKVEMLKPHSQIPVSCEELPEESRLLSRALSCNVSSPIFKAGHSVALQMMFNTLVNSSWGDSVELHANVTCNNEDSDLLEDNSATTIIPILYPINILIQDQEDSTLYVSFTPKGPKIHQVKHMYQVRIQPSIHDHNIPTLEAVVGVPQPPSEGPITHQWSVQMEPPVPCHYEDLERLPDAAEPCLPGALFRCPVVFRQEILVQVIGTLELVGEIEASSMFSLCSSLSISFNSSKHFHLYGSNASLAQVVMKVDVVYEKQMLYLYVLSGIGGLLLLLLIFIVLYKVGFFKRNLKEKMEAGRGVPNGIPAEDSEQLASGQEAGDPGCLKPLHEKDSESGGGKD
Procedure: Cells were incubated either with 2 nM of the dye-conjugated antibodies or with increasing concentrations of antibody (0-50 nM, right) for 1 h at 4° C. in the presence of Fc block (Human Fc block, BD Biosciences).
Because monocytes/macrophages have Fcγ receptors, the binding in the presence of an Fc blocking reagent was also examined (BD biosciences). […] Furthermore, binding of anti-Her2 to THP-1 cells at different concentrations, with or without Fc block treatment was performed (FIG. 9B).

| EC50 [1] [nM] | EC50 [2] [nM] | EC50 [4] [nM] | Kd [5] [nM] | Molecule | LXR activation in HepG2 cells [3] |
| --- | --- | --- | --- | --- | --- |
| – | – | 79 ± 1.1 | – | O=S(=O)(c1ccccc1)N(CC(F)(F)F)c1ccc(C(O)(C(F)(F)F)C(F)(F)F)cc1 [compound 2, T0901317] | equipotent in these cells relative to THP-1 |
| 12 | 1.5 | – | – | CCc1cnc2c(C(F)(F)F)cccc2c1-c1cccc(Oc2cccc(S(=O)(=O)N(C)CCN)c2)c1 [compound 3] | – |

More lines, now with the values behind:

| Molecule | EC50 [1] [nM] | EC50 [2] [nM] | EC50 [4] [nM] | Kd [5] [nM] | LXR activation in HepG2 cells [3] |
| --- | --- | --- | --- | --- | --- |
| O=C(O)Cc1cccc(OCCCN(Cc2cccc(C(F)(F)F)c2Cl)CC(c2ccccc2)c2ccccc2)c1 [compound 1, GW3965, reference compound] | 0.5 | 1.1 | – | – | – |
| anti-CD11a A122pAcF IgG conjugated to Alexa Fluor 488 (anti-CD11a IgGX-AF488) (antibody, V domains shown, para-acetylphenylalanine (pAcF) at position A122 (the X in SEQ ID NO 10), oxime-linked to aminooxy-Alexa Fluor 488, Humanized monoclonal anti-CD11a IgG made in CHO cells; The unnatural amino acid pAcF sits at heavy chain position A122; also called anti-CD11a pAcF IgGX) VH: EVQLVESGGGLVQPGGSLRLSCAASGYSFTGHWMNWVRQAPGKGLEWVGMIHPSDSETRYNQKFKDRFTISVDKSKNTLYLQMNSLRAEDTAVYYCARGIYFYGTTYFDYWGQGTLVTVSS VL: DIQMTQSPSSLSASVGDRVTITCRASKTISKYLAWYQQKPGKAPKLLIYSGSTLQSGVPSRFSGSGSGTDFTLTISSLQPEDFATYYCQQHNEYPLTFGQGTKVEIKR | – | – | – | ~0.5 | – |

Reference: patent US20160324981A1, “LIVER X RECEPTOR AGONISTS AND USES THEREOF” (The California Institute for Biomedical Research, priority 2015, published 2016)
